Assay results: ChEMBL document CHEMBL5390265, “Design, Synthesis, and Pharmacological Evaluation of Multisubstituted Pyrido[4,3-d]pyrimidine Analogues Bearing Deuterated Methylene Linkers as Potent KRASG12D Inhibitors” (J Med Chem, 2023)

What was measured:
[1] = tested on: ASPC1; test: Antiproliferative activity against human ASPC1 cells harboring […] assessed as inhibition of cell growth incubated for 5 days by crystal violet staining analysis; format: functional, cell-based; details: Homo sapiens, ASPC1, 120 h
[2] = tested on: AGS; test: Antiproliferative activity against human AGS cells harboring […] assessed as inhibition of cell growth incubated for 5 days by crystal violet staining analysis; format: functional, cell-based; details: Homo sapiens, AGS, 120 h
[3] = tested on: A549; test: Antiproliferative activity against human A549 cells harboring […] assessed as inhibition of cell growth incubated for 5 days by crystal violet staining analysis; format: functional, cell-based; details: Homo sapiens, A549, 120 h
[4] = tested on: NCI-H1299; test: Antiproliferative activity against human NCI-H1299 cells harboring KRAS wild type assessed as inhibition of cell growth incubated for 5 days by crystal violet staining analysis; format: functional, cell-based; details: NCI-H1299, 120 h
[5] = Inhibition of recombinant human His6-tagged KRAS4B G12D mutant incubated for 1 hr by HTRF assay
[6] = target: GTPase KRas (Homo sapiens, UniProt P01116); test: Inhibition of recombinant human GTP-bound KRAS wild type (1 to 169 residues) incubated for 1 hr by HTRF assay
[7] = Half life in Sprague-Dawley rat at 3 mg/kg,po measured upto 24 hrs by LC-MS/MS analysis; format: ADME, organism-based; details: in vivo
[8] = AUC in Sprague-Dawley rat at 3 mg/kg,po measured upto 24 hrs by LC-MS/MS analysis; format: ADME, organism-based; parameters: time < 24 hrs, dose 3 mg/kg, route po; details: in vivo
[9] = Half life in Sprague-Dawley rat at 1 mg/kg,iv measured upto 24 hrs by LC-MS/MS analysis; format: ADME, organism-based; details: in vivo
[10] = AUC in Sprague-Dawley rat at 1 mg/kg,iv measured upto 24 hrs by LC-MS/MS analysis; format: ADME, organism-based; parameters: dose 1 mg/kg, time < 24 hrs, route iv; details: in vivo
[11] = Clearance in Sprague-Dawley rat at 1 mg/kg,iv measured upto 24 hrs by LC-MS/MS analysis; format: ADME, organism-based; details: in vivo
[12] = Metabolic stability in rat liver microsomes assessed as half life at 150 uM measured after 60 mins in presence of NADPH by LC-MS/MS analysis; format: ADME, Microsome
[13] = Metabolic stability in monkey liver microsomes assessed as half life at 150 uM measured after 60 mins in presence of NADPH by LC-MS/MS analysis; format: ADME, Macaca mulatta, Microsome; details: rhesus monkey
[14] = Metabolic stability in dog liver microsomes assessed as half life at 150 uM measured after 60 mins in presence of NADPH by LC-MS/MS analysis; format: ADME, Canis lupus familiaris, Microsome
[15] = Metabolic stability in rat liver microsomes assessed as intrinsic clearance at 150 uM measured after 60 mins in presence of NADPH by LC-MS/MS analysis; format: ADME, Microsome; details: read-out: CLH
[16] = Metabolic stability in monkey liver microsomes assessed as intrinsic clearance at 150 uM measured after 60 mins in presence of NADPH by LC-MS/MS analysis; format: ADME, Macaca mulatta, Microsome; details: rhesus monkey, read-out: CLH
[17] = Metabolic stability in dog liver microsomes assessed as intrinsic clearance at 150 uM measured after 60 mins in presence of NADPH by LC-MS/MS analysis; format: ADME, Canis lupus familiaris, Microsome; details: read-out: CLH
[18] = tested on: ASPC1; test: Induction of apoptosis in human ASPC1 cells harboring […] assessed as early apoptotic cells at 25 uM incubated for 24 hrs by annexin V and propidium iodide staining based flow cytometry analysis (reference value: 5.22%); format: functional
[19] = tested on: ASPC1; test: Induction of apoptosis in human ASPC1 cells harboring […] assessed as late apoptotic cells at 25 uM incubated for 24 hrs by annexin V and propidium iodide staining based flow cytometry analysis (reference value: 6.96%); format: functional
[20] = tested on: ASPC1; test: Induction of apoptosis in human ASPC1 cells harboring […] assessed as early apoptotic cells at 50 uM incubated for 24 hrs by annexin V and propidium iodide staining based flow cytometry analysis (reference value: 5.22%); format: functional
[21] = tested on: ASPC1; test: Induction of apoptosis in human ASPC1 cells harboring […] assessed as late apoptotic cells at 50 uM incubated for 24 hrs by annexin V and propidium iodide staining based flow cytometry analysis (reference value: 6.96%); format: functional
[22] = tested on: AGS; test: Induction of apoptosis in human AGS cells harboring […] assessed as early apoptotic cells at 25 uM incubated for 24 hrs by annexin V and propidium iodide staining based flow cytometry analysis (reference value: 4.05%); format: functional
[23] = tested on: AGS; test: Induction of apoptosis in human AGS cells harboring […] assessed as late apoptotic cells at 25 uM incubated for 24 hrs by annexin V and propidium iodide staining based flow cytometry analysis (reference value: 7.74%); format: functional
[24] = tested on: AGS; test: Induction of apoptosis in human AGS cells harboring […] assessed as early apoptotic cells at 50 uM incubated for 24 hrs by annexin V and propidium iodide staining based flow cytometry analysis (reference value: 4.05%); format: functional
[25] = tested on: AGS; test: Induction of apoptosis in human AGS cells harboring […] assessed as late apoptotic cells at 50 uM incubated for 24 hrs by annexin V and propidium iodide staining based flow cytometry analysis (reference value: 7.74%); format: functional
[26] = tested on: ASPC1; test: Antitumor activity against human ASPC1 cells xenografted in mouse assessed as inhibition of tumor growth at 10 mg/kg,ip administrated twice daily for 20 consecutive days relative to control; format: functional; details: read-out: TGI
[27] = tested on: ASPC1; test: Antitumor activity against human ASPC1 cells xenografted in mouse assessed as inhibition of tumor growth at 20 mg/kg,ip administrated twice daily for 20 consecutive days relative to control; format: functional; details: read-out: TGI
[28] = Toxicity in mouse xenografted with human ASPC1 cells assessed as change in body weight at 10 mg/kg,ip administrated twice daily for 20 consecutive days; format: organism-based; details: in vivo
[29] = Toxicity in mouse xenografted with human ASPC1 cells assessed as change in body weight at 20 mg/kg,ip administrated twice daily for 20 consecutive days; format: organism-based; details: in vivo
[30] = Toxicity in mouse xenografted with human ASPC1 cells assessed as change in heart morphology at 10 mg/kg,ip administrated twice daily for 20 consecutive days by Hematoxylin-eosin staining based microscopic analysis; format: organism-based; details: in vivo
[31] = Toxicity in mouse xenografted with human ASPC1 cells assessed as change in heart morphology at 20 mg/kg,ip administrated twice daily for 20 consecutive days by Hematoxylin-eosin staining based microscopic analysis; format: organism-based; details: in vivo
[32] = Toxicity in mouse xenografted with human ASPC1 cells assessed as change in liver morphology at 10 mg/kg,ip administrated twice daily for 20 consecutive days by Hematoxylin-eosin staining based microscopic analysis; format: organism-based; details: in vivo
[33] = Toxicity in mouse xenografted with human ASPC1 cells assessed as change in liver morphology at 20 mg/kg,ip administrated twice daily for 20 consecutive days by Hematoxylin-eosin staining based microscopic analysis; format: organism-based; details: in vivo
[34] = Toxicity in mouse xenografted with human ASPC1 cells assessed as change in spleen morphology at 10 mg/kg,ip administrated twice daily for 20 consecutive days by Hematoxylin-eosin staining based microscopic analysis; format: organism-based; details: in vivo
[35] = Toxicity in mouse xenografted with human ASPC1 cells assessed as change in spleen morphology at 20 mg/kg,ip administrated twice daily for 20 consecutive days by Hematoxylin-eosin staining based microscopic analysis; format: organism-based; details: in vivo
[36] = Toxicity in mouse xenografted with human ASPC1 cells assessed as change in lung morphology at 10 mg/kg,ip administrated twice daily for 20 consecutive days by Hematoxylin-eosin staining based microscopic analysis; format: organism-based; details: in vivo
[37] = Toxicity in mouse xenografted with human ASPC1 cells assessed as change in lung morphology at 20 mg/kg,ip administrated twice daily for 20 consecutive days by Hematoxylin-eosin staining based microscopic analysis; format: organism-based; details: in vivo
[38] = Toxicity in mouse xenografted with human ASPC1 cells assessed as change in kidney morphology at 10 mg/kg,ip administrated twice daily for 20 consecutive days by Hematoxylin-eosin staining based microscopic analysis; format: organism-based; details: in vivo
[39] = Toxicity in mouse xenografted with human ASPC1 cells assessed as change in kidney morphology at 20 mg/kg,ip administrated twice daily for 20 consecutive days by Hematoxylin-eosin staining based microscopic analysis; format: organism-based; details: in vivo
[40] = Toxicity in mouse xenografted with human ASPC1 cells assessed as serum creatinine level at 10 mg/kg,ip administrated twice daily for 20 consecutive days (reference value: 28.2 +/- 2.1 umol/L); format: organism-based; details: in vivo
[41] = Toxicity in mouse xenografted with human ASPC1 cells assessed as serum creatinine level at 20 mg/kg,ip administrated twice daily for 20 consecutive days (reference value: 28.2 +/- 2.1 umol/L); format: organism-based; details: in vivo
[42] = Toxicity in mouse xenografted with human ASPC1 cells assessed as serum blood urea nitrogen level at 10 mg/kg,ip administrated twice daily for 20 consecutive days (reference value: 16.3 +/- 1.6 mmol/L); format: organism-based; details: in vivo
[43] = Toxicity in mouse xenografted with human ASPC1 cells assessed as serum blood urea nitrogen level at 20 mg/kg,ip administrated twice daily for 20 consecutive days (reference value: 16.3 +/- 1.6 mmol/L); format: organism-based; details: in vivo
[44] = Toxicity in mouse xenografted with human ASPC1 cells assessed as serum ratio of AST/ALT at 10 mg/kg,ip administrated twice daily for 20 consecutive days (reference value: 6.5 +/- 1.7); format: organism-based; details: in vivo
[45] = Toxicity in mouse xenografted with human ASPC1 cells assessed as serum ratio of AST/ALT at 20 mg/kg,ip administrated twice daily for 20 consecutive days (reference value: 6.5 +/- 1.7); format: organism-based; details: in vivo

## [2H]C([2H])(Oc1nc(N2C[C@H]3CC[C@@H](C2)N3)c2cnc(-c3cc(N)cc4ccc(F)c(C#C)c34)c(F)c2n1)C12CCCN1CC(=C(F)F)C2 (stereo partly drawn)
[1]
  IC50: 1.6 nM
[2]
  IC50: 0.9 nM
[3]
  IC50: 1190 nM
[4]
  IC50: 1850 nM
[5]
  IC50: 1.19 nM
[6]
  IC50: 16.7 nM
[7]
  half-life: 22.9 min
[8]
  AUC at 24 h: 2.89 ng·h/mL
[9]
  half-life: 660 min
[10]
  AUC at 24 h: 102 ng·h/mL
[11]
  clearance: 168 mL/min/kg
[12]
  half-life at 150 µM: 92.4 min
[13]
  half-life at 150 µM: 30.5 min
[14]
  half-life at 150 µM: 85.6 min
[15]
  microsomal CLint at 150 µM: 15 µL/min/mg
[16]
  microsomal CLint at 150 µM: 45.4 µL/min/mg
[17]
  microsomal CLint at 150 µM: 16.2 µL/min/mg
[18]
  Activity: 9.56%
[19]
  Activity: 10.8%
[20]
  Activity: 12.4%
[21]
  Activity: 11.8%
[22]
  Activity: 8.84%
[23]
  Activity: 11%
[24]
  Activity: 9.08%
[25]
  Activity: 13.7%
[26]
  inhibition in vivo at 10 mg/kg: 53.3%
[27]
  inhibition in vivo at 20 mg/kg: 71.3%
[28]
  Activity: Non-Toxic
[29]
  Activity: Non-Toxic
[30]
  Activity: Non-Toxic
[31]
  Activity: Non-Toxic
[32]
  Activity: Non-Toxic
[33]
  Activity: Non-Toxic
[34]
  Activity: Non-Toxic
[35]
  Activity: Non-Toxic
[36]
  Activity: Non-Toxic
[37]
  Activity: Non-Toxic
[38]
  Activity: Non-Toxic
[39]
  Activity: Non-Toxic
[40]
  Activity: 29.7 µmol/L
[41]
  Activity: 23.5 µmol/L
[42]
  Activity: 19.2 mmol/L
[43]
  Activity: 16.7 mmol/L
[44]
  Ratio: 4.5
[45]
  Ratio: 4.5

## [2H]C([2H])(Oc1nc(N2C[C@H]3CC[C@@H](C2)N3)c2cnc(-c3cc(O)cc4ccc(F)c(C#C)c34)c(F)c2n1)C12CCCN1CC(=C(F)F)C2 (stereo partly drawn)
[1]
  IC50: 0.6 nM
[2]
  IC50: 0.3 nM
[3]
  IC50: 332 nM
[4]
  IC50: 1940 nM
[5]
  IC50: 0.48 nM
[6]
  IC50: 10.2 nM
[9]
  half-life: 18.4 min
[10]
  AUC at 24 h: 37.2 ng·h/mL
[11]
  clearance: 490 mL/min/kg
[12]
  half-life at 150 µM: 83.5 min
[13]
  half-life at 150 µM: 24.3 min
[14]
  half-life at 150 µM: 26.8 min
[15]
  microsomal CLint at 150 µM: 16.6 µL/min/mg
[16]
  microsomal CLint at 150 µM: 57 µL/min/mg
[17]
  microsomal CLint at 150 µM: 51.8 µL/min/mg
[18]
  Activity: 9.17%
[19]
  Activity: 10%
[20]
  Activity: 11.5%
[21]
  Activity: 18.7%
[22]
  Activity: 11.4%
[23]
  Activity: 9.76%
[24]
  Activity: 13.1%
[25]
  Activity: 14%
[26]
  inhibition in vivo at 10 mg/kg: 55.3%
[27]
  inhibition in vivo at 20 mg/kg: 73.4%
[28]
  Activity: Non-Toxic
[29]
  Activity: Non-Toxic
[30]
  Activity: Non-Toxic
[31]
  Activity: Non-Toxic
[32]
  Activity: Non-Toxic
[33]
  Activity: Non-Toxic
[34]
  Activity: Non-Toxic
[35]
  Activity: Non-Toxic
[36]
  Activity: Non-Toxic
[37]
  Activity: Non-Toxic
[38]
  Activity: Non-Toxic
[39]
  Activity: Non-Toxic
[40]
  Activity: 25.9 µmol/L
[41]
  Activity: 22.2 µmol/L
[42]
  Activity: 13.5 mmol/L
[43]
  Activity: 14.1 mmol/L
[44]
  Ratio: 5
[45]
  Ratio: 5.7
